Tests used:
[1] = target: T1, 5-hydroxytryptamine receptor 2A (Homo sapiens, UniProt P28223); assay: Binding affinity to 5HT2A receptor (unknown origin) at 10 uM relative to control
[2] = target: T2, 5-hydroxytryptamine receptor 2B (Homo sapiens, UniProt P41595); assay: Binding affinity to 5HT2B receptor (unknown origin) assessed as inhibition constant
[3] = target: T3, 5-hydroxytryptamine receptor 2C (Homo sapiens) (UniProt P28335); assay: Binding affinity to 5HT2C receptor (unknown origin) at 10 uM relative to control; conditions: filed as antagonist
T3 sequence (whole entry): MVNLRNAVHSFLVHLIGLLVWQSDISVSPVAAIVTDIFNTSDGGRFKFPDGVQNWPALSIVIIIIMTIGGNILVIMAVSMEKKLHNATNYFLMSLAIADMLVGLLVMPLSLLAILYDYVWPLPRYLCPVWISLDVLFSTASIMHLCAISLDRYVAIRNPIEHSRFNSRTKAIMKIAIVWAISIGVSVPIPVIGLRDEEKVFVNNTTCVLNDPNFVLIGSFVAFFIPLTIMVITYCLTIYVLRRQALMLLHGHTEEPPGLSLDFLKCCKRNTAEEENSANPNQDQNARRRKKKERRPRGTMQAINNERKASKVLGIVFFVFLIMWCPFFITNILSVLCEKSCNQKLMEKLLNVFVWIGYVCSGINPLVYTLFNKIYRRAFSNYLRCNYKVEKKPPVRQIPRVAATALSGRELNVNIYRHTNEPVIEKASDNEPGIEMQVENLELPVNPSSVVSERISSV

[4] = target: T4, 5-hydroxytryptamine receptor 2C (Homo sapiens, UniProt P28335); assay: Displacement of [3H]-Mesulergine from human 5-HT2C expressed in Flp-In-T-REx-293 cells assessed as inhibition constant incubated for 1 hr; type: cell-based
T4 sequence (P28335 whole entry): T3 sequence (whole entry)

Adenosine receptor A3 = target: T5, Adenosine receptor A3 (Homo sapiens, UniProt P0DMS8); assay: Displacement of […] from human A3AR expressed in HEK cells assessed as inhibition constant; type: cell-based
T5 sequence (P0DMS8 whole entry): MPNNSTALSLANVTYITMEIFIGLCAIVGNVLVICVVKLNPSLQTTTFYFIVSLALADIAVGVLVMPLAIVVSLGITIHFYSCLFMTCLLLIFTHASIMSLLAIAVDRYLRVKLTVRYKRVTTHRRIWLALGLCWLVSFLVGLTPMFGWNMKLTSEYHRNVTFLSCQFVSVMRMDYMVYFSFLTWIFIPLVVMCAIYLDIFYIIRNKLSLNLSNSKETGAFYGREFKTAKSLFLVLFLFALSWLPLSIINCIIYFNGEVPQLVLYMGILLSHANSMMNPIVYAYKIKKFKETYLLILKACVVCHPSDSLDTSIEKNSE

[5] = target: T1, 5-hydroxytryptamine receptor 2A; assay: Displacement of [3H]ketanserin from human 5-HT2A receptor expressed in HEK293 cells at 10 uM incubated for 1 hr relative to control; type: cell-based
Adenosine receptor A1 = target: T6, Adenosine receptor A1 (Homo sapiens, UniProt P30542); assay: Displacement of […] from human A1AR expressed in Flp-In-T-REx-293 cells assessed as inhibition constant; type: cell-based
T6 sequence (P30542 whole entry): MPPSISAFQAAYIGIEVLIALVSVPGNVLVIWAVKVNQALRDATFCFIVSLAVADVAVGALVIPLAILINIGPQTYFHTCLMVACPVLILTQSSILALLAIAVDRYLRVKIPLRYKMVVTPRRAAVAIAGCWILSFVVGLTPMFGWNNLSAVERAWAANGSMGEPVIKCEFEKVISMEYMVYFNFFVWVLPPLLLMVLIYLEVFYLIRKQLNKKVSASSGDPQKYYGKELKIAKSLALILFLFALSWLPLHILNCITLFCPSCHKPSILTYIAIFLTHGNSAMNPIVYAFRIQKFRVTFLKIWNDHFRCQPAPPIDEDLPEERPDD

[6] = target: Adenosine receptor A2a (Homo sapiens) (UniProt P29274); assay: Displacement of […] from human A2AR expressed in HEK cells at 10 uM relative to control; type: cell-based
[7] = target: T7, Alpha-2B adrenergic receptor (Homo sapiens, UniProt P18089); assay: Binding affinity to alpha2B receptor (unknown origin) assessed as inhibition constant
T7 sequence (P18089 whole entry): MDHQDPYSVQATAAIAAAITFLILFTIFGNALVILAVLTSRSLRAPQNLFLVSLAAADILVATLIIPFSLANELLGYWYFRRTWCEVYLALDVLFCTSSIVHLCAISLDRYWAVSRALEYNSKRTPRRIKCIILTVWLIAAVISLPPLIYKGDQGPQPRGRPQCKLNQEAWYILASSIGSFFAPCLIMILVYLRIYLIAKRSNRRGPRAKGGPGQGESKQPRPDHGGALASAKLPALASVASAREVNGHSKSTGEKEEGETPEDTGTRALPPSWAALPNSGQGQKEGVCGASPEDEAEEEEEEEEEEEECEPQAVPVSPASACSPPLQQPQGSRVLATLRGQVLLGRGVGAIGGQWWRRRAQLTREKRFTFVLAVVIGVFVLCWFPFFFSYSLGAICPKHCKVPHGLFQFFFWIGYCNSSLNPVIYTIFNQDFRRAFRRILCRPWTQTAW

[8] = target: 5-hydroxytryptamine receptor 1D (Homo sapiens, UniProt P28221); assay: Binding affinity to 5HT1D receptor (unknown origin) assessed as inhibition constant
[9] = target: T2, 5-hydroxytryptamine receptor 2B; assay: Displacement of [3H]-LSD from human 5-HT2B receptor expressed in HEK cells assessed as inhibition constant incubated for 1 hr; type: cell-based
[10] = target: T8, Adenosine receptor A3 (Homo sapiens) (UniProt P0DMS8); assay: Displacement of […] from human A3AR expressed in HEK cells at 10 uM relative to control; type: cell-based
T8 sequence (whole entry): T5 sequence (P0DMS8 whole entry)

[11] = target: T3, 5-hydroxytryptamine receptor 2C (Homo sapiens); assay: Displacement of [3H]-Mesulergine from human 5-HT2C expressed in Flp-In-T-REx-293 cells at 10 uM incubated for 1 hr relative to control; type: cell-based
[12] = target: T2, 5-hydroxytryptamine receptor 2B; assay: Displacement of [3H]-LSD from human 5-HT2B receptor expressed in HEK cells at 10 uM incubated for 1 hr relative to control; type: cell-based
[13] = target: T3, 5-hydroxytryptamine receptor 2C (Homo sapiens); conditions: Flp-In-T-REx-293, filed as antagonist, time 1.0 hrs
[14] = target: T1, 5-hydroxytryptamine receptor 2A; conditions: Flp-In-T-REx-293, time 1.0 hrs
[15] = target: T4, 5-hydroxytryptamine receptor 2C; assay: Binding affinity to 5HT2C receptor (unknown origin) assessed as inhibition constant

T2 sequence (P41595 whole entry): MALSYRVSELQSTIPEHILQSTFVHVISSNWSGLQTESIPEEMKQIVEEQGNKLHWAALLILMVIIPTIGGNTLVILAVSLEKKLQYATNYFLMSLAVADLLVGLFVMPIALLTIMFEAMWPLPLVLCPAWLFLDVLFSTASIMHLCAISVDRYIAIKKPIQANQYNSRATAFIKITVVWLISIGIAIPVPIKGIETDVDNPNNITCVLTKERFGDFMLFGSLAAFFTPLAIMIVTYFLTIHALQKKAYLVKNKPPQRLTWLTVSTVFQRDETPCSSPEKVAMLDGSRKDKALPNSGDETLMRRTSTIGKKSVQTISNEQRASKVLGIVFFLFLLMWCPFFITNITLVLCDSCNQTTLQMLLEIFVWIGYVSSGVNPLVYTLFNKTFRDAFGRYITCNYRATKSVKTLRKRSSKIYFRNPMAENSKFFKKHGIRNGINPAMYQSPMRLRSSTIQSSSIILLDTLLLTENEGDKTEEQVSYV
Adenosine receptor A2a (Homo sapiens), sequence (P29274 whole entry): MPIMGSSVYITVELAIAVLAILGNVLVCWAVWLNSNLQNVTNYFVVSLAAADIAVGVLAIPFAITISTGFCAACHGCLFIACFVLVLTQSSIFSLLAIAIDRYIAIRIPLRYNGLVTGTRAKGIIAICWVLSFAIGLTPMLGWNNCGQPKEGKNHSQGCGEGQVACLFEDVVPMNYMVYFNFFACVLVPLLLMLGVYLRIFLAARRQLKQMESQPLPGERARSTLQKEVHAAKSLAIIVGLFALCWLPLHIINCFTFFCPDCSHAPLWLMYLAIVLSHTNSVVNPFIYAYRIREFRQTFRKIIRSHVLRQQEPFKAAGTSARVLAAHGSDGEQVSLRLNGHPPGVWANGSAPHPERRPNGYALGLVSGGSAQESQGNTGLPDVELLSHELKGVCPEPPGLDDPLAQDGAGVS
T1 sequence (P28223 whole entry): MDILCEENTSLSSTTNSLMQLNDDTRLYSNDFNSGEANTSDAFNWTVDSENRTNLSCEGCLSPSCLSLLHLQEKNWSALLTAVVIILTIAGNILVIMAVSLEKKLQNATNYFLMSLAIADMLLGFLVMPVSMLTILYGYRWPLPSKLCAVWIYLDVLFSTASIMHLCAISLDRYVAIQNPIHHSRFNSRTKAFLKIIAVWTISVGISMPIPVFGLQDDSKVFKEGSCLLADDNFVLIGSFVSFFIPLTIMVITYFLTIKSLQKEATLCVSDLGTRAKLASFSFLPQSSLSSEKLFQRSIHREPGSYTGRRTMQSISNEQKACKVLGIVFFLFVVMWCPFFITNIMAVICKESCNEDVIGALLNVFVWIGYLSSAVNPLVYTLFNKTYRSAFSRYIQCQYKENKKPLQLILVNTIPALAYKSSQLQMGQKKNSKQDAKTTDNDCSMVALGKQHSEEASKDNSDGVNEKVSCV
5-hydroxytryptamine receptor 1D, sequence (P28221 whole entry): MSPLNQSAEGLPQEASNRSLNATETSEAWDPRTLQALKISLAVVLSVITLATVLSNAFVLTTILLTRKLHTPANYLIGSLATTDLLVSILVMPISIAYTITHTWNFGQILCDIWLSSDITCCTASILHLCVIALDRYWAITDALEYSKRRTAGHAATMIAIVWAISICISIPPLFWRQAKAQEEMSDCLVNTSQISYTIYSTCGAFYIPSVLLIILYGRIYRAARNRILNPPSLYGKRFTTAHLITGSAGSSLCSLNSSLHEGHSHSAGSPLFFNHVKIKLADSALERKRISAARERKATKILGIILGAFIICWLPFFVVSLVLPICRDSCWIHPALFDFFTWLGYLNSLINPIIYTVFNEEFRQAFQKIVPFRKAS

Structure (SMILES): CNC(=O)[C@]12C[C@@H]1[C@@H](n1cnc3c(NC4CCCC4)nc(Cl)nc31)[C@H](O)[C@@H]2O
- Activity [1]: 0%
- Ki [2]: 0.0782 µM
- Activity [3]: 44%

Structure (SMILES): OC[C@@]12C[C@@H]1[C@@H](n1cnc3c(NC(C4CC4)C4CC4)nc(I)nc31)[C@H](O)[C@@H]2O
- Ki ([4]; read-out: Ki): 0.249 µM
- Ki (Adenosine receptor A3): 7.81 µM
- Activity [5]: 35%
- Ki (Adenosine receptor A1): 0.0134 µM
- Activity ([6]; filed as agonist): 63%

Structure (SMILES): O[C@H]1[C@H](n2cnc3c(NC(C4CCCCC4)C4CCCCC4)nc(Cl)nc32)[C@H]2C[C@@]2(CF)[C@H]1O
- Ki ([4]; read-out: Ki): 0.163 µM
- Ki (Adenosine receptor A3): 5.04 µM
- Ki [7]: 3.6 µM
- Ki [8]: 5.5 µM
- Activity [6]: -27%

Structure (SMILES): CSC[C@@]12C[C@@H]1[C@@H](n1cnc3c(NC(C4CC4)C4CC4)nc(Cl)nc31)[C@H](O)[C@@H]2O
- Ki ([4]; read-out: Ki): 0.772 µM
- Ki (Adenosine receptor A3): 0.932 µM
- Activity [5]: 19%
- Ki (Adenosine receptor A1): 0.0632 µM

Structure (SMILES): CSC[C@@]12C[C@@H]1[C@@H](n1cnc3c(NC(C4CC4)C4CC4)nc(I)nc31)[C@H](O)[C@@H]2O
- Ki ([4]; read-out: Ki): 0.493 µM
- Activity [5]: 16%
- Ki (Adenosine receptor A1): 0.466 µM
- Activity ([6]; filed as agonist): 40%
- Ki [9]: 0.522 µM
- Activity ([10]; filed as agonist): 62%

Structure (SMILES): Ic1nc(N[C@H](C2CCC2)C2CC2)c2nc[nH]c2n1
- Activity [11]: 5%
- Activity [5]: -10%
- Ki (Adenosine receptor A1): 0.648 µM
- Ki [9]: 0.313 µM

Structure (SMILES): Nc1nc(I)nc2c1ncn2[C@H]1[C@H](O)[C@H](O)[C@]2(CO)C[C@H]12
- Activity [12]: -3%
- Activity [11]: -38%
- Activity [5]: -27%

Structure (SMILES): Nc1nc(I)nc2c1ncn2[C@H]1[C@H](O)[C@H](O)[C@]2(CCl)C[C@H]12
- Activity [12]: 11%
- Ki (Adenosine receptor A3): 0.39 µM
- Activity [11]: 12%
- Activity [5]: 0%
- Ki (Adenosine receptor A1): 0.147 µM

Structure (SMILES): O[C@@H]1[C@H](O)[C@@H]2C[C@@H]2[C@H]1n1cnc2c(NC(C3CCCC3)C3CCCC3)nc(Cl)nc21
- Activity [5]: 22%
- Activity [6]: 24%

Structure (SMILES): OC[C@@]12C[C@@H]1[C@@H](n1cnc3c(N[C@H](C4CCC4)C4CC4)nc(I)nc31)[C@H](O)[C@@H]2O
- Ki ([4]; read-out: Ki): 0.67 µM
- Ki ([4]; read-out: pKi (converted)): 0.603 µM
- pKb [13]: 6.54
- Activity [5]: 29%
- Ki (Adenosine receptor A1): 0.0427 µM
- Activity ([6]; filed as agonist): 50%
- Activity [10]: 34%
- pKb [14]: < 5

Structure (SMILES): O[C@H]1[C@H](n2cnc3c(NC(C4CC4)C4CC4)nc(Cl)nc32)[C@H]2C[C@@]2(CF)[C@H]1O
- Ki (Adenosine receptor A3): 3.7 µM
- Activity ([11]; filed as antagonist): 47%
- Activity [5]: 14%
- Ki (Adenosine receptor A1): 0.00595 µM
- Activity ([6]; filed as agonist): 55%

Structure (SMILES): O[C@H]1[C@H](n2cnc3c(NC(C4CCC4)C4CCC4)nc(Cl)nc32)[C@H]2C[C@@]2(CCl)[C@H]1O
- Ki [15]: 0.908 µM
- Activity [1]: 28%

Structure (SMILES): COCCN(CCOC)C(=O)[C@]12C[C@H]1[C@H](n1cnc3c(NC(C4CC4)C4CC4)nc(Cl)nc31)[C@@H](O)[C@H]2O (single isomer, unassigned)
- Activity [11]: 38%
- Activity [5]: 0%
- Activity [6]: 34%
- Activity [10]: 30%

Structure (SMILES): O[C@H]1[C@H](n2cnc3c(NC(C4CCC4)C4CCC4)ncnc32)[C@H]2C[C@@]2(CCl)[C@H]1O
- Ki [15]: 1.23 µM
- Activity [1]: 11%
- Ki [2]: 1.09 µM

Source: ChEMBL document CHEMBL5625223 (Eur J Med Chem, 2023)
